# Test results from PMC12501607, “Novel prolyl endopeptidase inhibitor from Myricaria germanica alleviates steatohepatitis” (RSC Advances, 2025).
# Tests used:
# [1] = target: T1, Prolyl endopeptidase (PREP) (Homo sapiens, UniProt P48147); experiment: Chromogenic enzyme assay (Z-Gly-Pro-pNA, […] nm) with recombinant human PREP; Lineweaver-Burk kinetics; format: biochemical
# T1 sequence (P48147 1-710): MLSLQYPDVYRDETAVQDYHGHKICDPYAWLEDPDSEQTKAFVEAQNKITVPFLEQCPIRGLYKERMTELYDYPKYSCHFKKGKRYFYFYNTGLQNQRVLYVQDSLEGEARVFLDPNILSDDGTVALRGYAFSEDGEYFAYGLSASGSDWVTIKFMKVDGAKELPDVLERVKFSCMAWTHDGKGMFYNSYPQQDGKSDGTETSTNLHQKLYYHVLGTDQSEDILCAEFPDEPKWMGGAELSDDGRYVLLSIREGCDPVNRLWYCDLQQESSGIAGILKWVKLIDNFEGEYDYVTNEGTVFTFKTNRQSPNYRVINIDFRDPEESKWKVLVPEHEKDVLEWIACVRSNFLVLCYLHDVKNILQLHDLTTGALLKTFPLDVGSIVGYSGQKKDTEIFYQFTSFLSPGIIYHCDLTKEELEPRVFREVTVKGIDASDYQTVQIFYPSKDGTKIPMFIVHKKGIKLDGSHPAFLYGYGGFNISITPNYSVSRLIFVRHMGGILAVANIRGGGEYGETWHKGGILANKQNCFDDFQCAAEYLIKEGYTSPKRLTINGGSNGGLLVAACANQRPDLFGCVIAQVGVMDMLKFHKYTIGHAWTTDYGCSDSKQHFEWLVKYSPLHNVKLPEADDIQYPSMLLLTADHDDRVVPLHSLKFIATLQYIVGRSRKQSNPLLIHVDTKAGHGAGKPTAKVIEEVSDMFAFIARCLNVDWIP
# [2] = target: T1, Prolyl endopeptidase (PREP); experiment: Chromogenic enzyme assay (Z-Gly-Pro-pNA, […] nm) with recombinant human PREP; format: biochemical
IC50 [1] [µM],IC50 [2] [µM],Structure (SMILES)
20 ± 1.6,–,"CCCCCCCCCCCCCCCCCCCCCCCCCC1CCCCC1O (racemic) [PREPi, (±)-2-pentacosylcyclohexanol]"
–,155 ± 1.8,"COc1cc(C(=O)O)cc(OC)c1O [Fr-2, syringic acid]"
